In patent US20130172320A1, “PYRIDO [4,3-B] INDOLE AND PYRIDO [3,4-B] INDOLE DERIVATIVES AND METHODS OF USE” (priority 2010, published 2013) one finds inhibition data, which are given here for two compounds.

The target in assay [1] is T1, human recombinant adrenergic α2C receptor (Homo sapiens, UniProt P18825).
T1 construct: expressed in transfected cells; host or cells: insect Sf9 cells
T1 sequence (P18825 1-462): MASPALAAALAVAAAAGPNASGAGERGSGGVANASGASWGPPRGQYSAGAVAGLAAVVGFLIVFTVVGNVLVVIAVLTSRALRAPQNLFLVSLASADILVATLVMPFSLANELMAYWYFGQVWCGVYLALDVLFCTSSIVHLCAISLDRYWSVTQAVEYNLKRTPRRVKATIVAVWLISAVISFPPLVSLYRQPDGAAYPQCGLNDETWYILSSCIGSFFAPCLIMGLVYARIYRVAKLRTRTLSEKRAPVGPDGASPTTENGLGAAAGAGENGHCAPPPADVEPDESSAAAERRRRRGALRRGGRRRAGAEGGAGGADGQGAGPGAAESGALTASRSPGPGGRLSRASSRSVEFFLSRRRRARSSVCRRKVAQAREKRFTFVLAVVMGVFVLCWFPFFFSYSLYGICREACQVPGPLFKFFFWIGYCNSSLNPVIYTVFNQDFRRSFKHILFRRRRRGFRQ
The assay can be described thus: Adrenergic α2C radioligand binding ([3H]MK-912). The settings on record: compound at 0.1 μM; read-out: Percentage inhibition of ligand binding, Adrenergic (0.1 μM) a2C. On the procedure:
To evaluate in radioligand binding assays the activity of compounds of the invention, human recombinant adrenergic α2C receptor expressed in insect Sf9 cells (Uhlen, S. et al, J. Pharmacol. Exp. Ther. 271:1558, 1994) in a modified Tris-HCl buffer (50 mM Tris-HCl, pH 7.4, 12.5 mM MgCl2, 2 mM EDTA) was used. Compounds of the invention were incubated with 1 nM [^3H]MK-912 for 60 min at 25° C. Non-specific binding was estimated in the presence of 10 μM WB-4101. Receptor proteins were filtered and washed, the filters were then counted to determine [^3H]MK-912 specifically bound. Compounds were screened at 1 μM or lower, using 1% DMSO as vehicle. Biochemical assay results are presented as the percent inhibition of specific binding in Table 3.

The target of assay [2] is T2, human recombinant serotonin (5-Hydroxytryptamine) 5-HT5A receptor (Homo sapiens, UniProt P47898).
T2 construct: expressed in transfected cells; host or cells: Chinese hamster ovary (CHO) K1 cells
T2 sequence (P47898 whole entry): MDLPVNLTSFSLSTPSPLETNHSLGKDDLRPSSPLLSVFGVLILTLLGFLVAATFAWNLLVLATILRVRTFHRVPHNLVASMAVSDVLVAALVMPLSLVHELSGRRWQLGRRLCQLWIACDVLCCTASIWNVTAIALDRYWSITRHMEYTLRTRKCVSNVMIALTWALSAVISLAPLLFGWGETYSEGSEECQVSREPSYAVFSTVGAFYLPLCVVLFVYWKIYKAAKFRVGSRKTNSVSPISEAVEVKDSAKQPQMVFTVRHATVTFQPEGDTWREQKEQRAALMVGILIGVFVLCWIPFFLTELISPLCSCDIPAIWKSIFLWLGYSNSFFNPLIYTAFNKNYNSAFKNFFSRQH
The assay can be described thus: Serotonin 5-HT5A radioligand binding ([3H]LSD). The following applies: compound at 0.1 μM; read-out: Percentage inhibition of ligand binding, Serotonin (0.1 μM) 5-HT5A. On the procedure: To evaluate in radioligand binding assays the activity of compounds of the invention, human recombinant serotonin (5-Hydroxytryptamine) 5-HT5A receptor expressed in Chinese hamster ovary (CHO) K1 cells (Rees, S. et al, FEBS Lett. 355:242, 1994) in a modified Tris-HCl buffer (50 mM Tris-HCl, pH 7.4, 10 mM MgCl2, 0.5 mM EDTA) was used. Compounds of the invention were incubated with 1.7 nM [^3H]Lysergic acid diethylamide (LSD) for 60 min at 37° C. Non-specific binding was estimated in the presence of 100 μM Serotonin (5-HT). Receptor proteins were filtered and washed, the filters were counted to determine [^3H]LSD specifically bound. Compounds were screened at 1 μM or lower, using 1% DMSO as vehicle. Biochemical assay results are presented as the percent inhibition of specific binding in Table 4.

Assay [3] has as its target T3, human recombinant adrenergic α2B receptor (Homo sapiens, UniProt P18089).
T3 construct: expressed in transfected cells; host or cells: Chinese hamster ovary (CHO) K1 cells
T3 sequence (P18089 1-450): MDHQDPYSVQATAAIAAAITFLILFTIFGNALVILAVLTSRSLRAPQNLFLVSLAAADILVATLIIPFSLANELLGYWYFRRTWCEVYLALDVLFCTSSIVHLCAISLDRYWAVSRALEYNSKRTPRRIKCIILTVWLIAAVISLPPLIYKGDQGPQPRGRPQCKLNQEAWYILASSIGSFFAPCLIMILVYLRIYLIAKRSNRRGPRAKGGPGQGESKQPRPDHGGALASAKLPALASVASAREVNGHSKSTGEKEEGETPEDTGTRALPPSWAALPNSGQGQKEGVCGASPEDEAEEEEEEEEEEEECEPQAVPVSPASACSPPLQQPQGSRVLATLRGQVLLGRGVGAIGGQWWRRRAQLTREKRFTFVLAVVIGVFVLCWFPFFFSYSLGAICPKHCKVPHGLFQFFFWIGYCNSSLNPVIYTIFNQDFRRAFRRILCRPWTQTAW
The assay can be described thus: Adrenergic α2B radioligand binding ([3H]Rauwolscine). The following applies: compound at 0.1 μM; read-out: Percentage inhibition of ligand binding, Adrenergic (0.1 μM) a2B. How it is done: To evaluate in radioligand binding assays the activity of compounds of the invention, human recombinant adrenergic α2B receptor expressed in Chinese hamster ovary (CHO) K1 cells (Uhlen, S. et al, Eur. J. Pharmacol. 343(1):93, 1998) in a modified Tris-HCl buffer (50 mM Tris-HCl, pH 7.4, 12.5 mM MgCl2, 1 mM EDTA, 0.2% BSA) was used. Compounds of the invention were incubated with 2.5 nM [^3H]Rauwolscine for 60 min at 25° C. Non-specific binding was estimated in the presence of 10 μM Prozosin. Receptor proteins were filtered and washed, the filters were then counted to determine [^3H]Rauwolscine specifically bound. Compounds were screened at 1 μM or lower, using 1% DMSO as vehicle. Biochemical assay results are presented as the percent inhibition of specific binding in Table 3.

For `C#CCC1(C)CN(C)Cc2c1n(C)c1ccc(C)cc21` (stereo not drawn) [Compound 47, 2,4,5,8-tetramethyl-4-(prop-2-ynyl)-2,3,4,5-tetrahydro-1H-pyrido[4,3-b]indole], the values for the inhibition at 0.1 µM in assay [1], in assay [2] and in assay [3] were 8%, 34% and 32%, respectively.

For the compound `Cc1ccc2c(c1)c1c(n2C)C(C)(CCc2nc(-c3ccccc3)cs2)CN(C)C1` (stereo not drawn) [Compound 48], the inhibition (in general, the relative decrease from the control value, in per cent) at 0.1 µM in assay [1] is 15%; in assay [2] it was -3%; in assay [3], -12%.
